Results taken from patent publication US9796733B2, “Imidazo-pyrazine derivatives useful as soluble guanylate cyclase activators” (Merck Sharp & Dohme Corp., priority 2014, dated 2017).
pEC50: −log10 of the molar value.

Target: T1, sGC α1/β1 heterodimer (Homo sapiens, UniProt Q02108+Q02153)
T1 construct: expressed in transfected cells; host or cells: CHO-K1 (clone #7, CHO-K1/sGC)
T1 sequence (Q02108 1-690): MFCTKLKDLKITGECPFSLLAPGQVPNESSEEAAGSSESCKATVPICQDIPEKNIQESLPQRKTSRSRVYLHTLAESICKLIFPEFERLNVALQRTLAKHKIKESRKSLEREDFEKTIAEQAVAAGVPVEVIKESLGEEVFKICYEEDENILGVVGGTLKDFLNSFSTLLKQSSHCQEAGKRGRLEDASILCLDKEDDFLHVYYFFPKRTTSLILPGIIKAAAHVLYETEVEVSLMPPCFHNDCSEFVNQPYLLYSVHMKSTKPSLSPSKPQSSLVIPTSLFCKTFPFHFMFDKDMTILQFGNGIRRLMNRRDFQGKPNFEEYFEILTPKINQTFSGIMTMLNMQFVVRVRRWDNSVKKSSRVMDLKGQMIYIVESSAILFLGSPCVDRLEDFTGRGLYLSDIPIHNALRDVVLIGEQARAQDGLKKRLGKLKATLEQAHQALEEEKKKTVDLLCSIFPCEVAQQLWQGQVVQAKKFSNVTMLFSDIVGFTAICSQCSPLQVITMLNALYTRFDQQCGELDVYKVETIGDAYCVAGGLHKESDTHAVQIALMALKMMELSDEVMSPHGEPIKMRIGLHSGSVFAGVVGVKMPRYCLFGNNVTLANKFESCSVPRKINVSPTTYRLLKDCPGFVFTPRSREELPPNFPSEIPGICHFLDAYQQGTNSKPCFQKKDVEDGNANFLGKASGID
T1 sequence (Q02153 1-619): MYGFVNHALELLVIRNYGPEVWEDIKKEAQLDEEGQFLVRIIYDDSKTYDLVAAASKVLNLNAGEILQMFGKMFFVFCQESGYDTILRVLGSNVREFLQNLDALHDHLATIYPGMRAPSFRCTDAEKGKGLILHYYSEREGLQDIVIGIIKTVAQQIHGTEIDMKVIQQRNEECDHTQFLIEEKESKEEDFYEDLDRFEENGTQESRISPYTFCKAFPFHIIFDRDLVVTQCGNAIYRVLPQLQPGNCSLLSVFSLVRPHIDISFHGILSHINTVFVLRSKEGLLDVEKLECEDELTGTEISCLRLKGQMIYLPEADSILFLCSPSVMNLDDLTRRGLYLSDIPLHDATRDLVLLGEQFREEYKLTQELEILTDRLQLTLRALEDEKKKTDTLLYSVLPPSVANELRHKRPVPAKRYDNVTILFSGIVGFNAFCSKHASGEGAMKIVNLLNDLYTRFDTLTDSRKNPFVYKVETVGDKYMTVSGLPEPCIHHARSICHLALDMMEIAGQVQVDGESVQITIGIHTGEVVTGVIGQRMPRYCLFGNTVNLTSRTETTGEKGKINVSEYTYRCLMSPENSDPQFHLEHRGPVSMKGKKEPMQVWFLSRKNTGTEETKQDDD
Test: Cell-based sGC functional assay (CASA assay): cGMP generation in CHO-K1/sGC cells, HTRF detection
Conditions: for Emax: CHO-K1, percent activation relative to standard Compound A in CHO-K1/sGC cells, read-out: % Act.; for pEC50: inflection point (IP) of cGMP generation in CHO-K1/sGC cells, 4P fit, activity expressed as percentage of Compound A
How it was run: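 cGMP was quantified by HTRF after 1 hr, 37° C exposure of thawed CHO-K1 cells expressing sGC α1/β1 to compound, with or without 1 μM DETA-NO. IBMX (0.5 mM) blocked cGMP breakdown, and DMSO was 2.5% final. Percent of standard Compound A's maximal cGMP was fitted (4P) for inflection point.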

| SMILES | Emax | pEC50 |
| --- | --- | --- |
| CC1(c2ccc(Cl)cc2)C(=O)Nc2nc(-c3cn4ccnc4cn3)nc(N3CC(C(F)(F)F)C3)c21 (centres unmarked) [Example 282A, 5-(4-chlorophenyl)-2-(imidazo[1,2-a]pyrazin-6-yl)-5-methyl-4-(3-(trifluromethyl)azetidin-1-yl)-5H-pyrrolo[2,3-d]pyrimidin-6(7H)-one] | 153% | 6.71 |
| CC1(c2ccc(Cl)cc2)C(=O)Nc2nc(-c3cn4ccnc4cn3)nc(NCC3CC3)c21 (centres unmarked) [Example 283A, 5-(4-chlorophenyl)-4-((cyclopropylmethyl)amino)-2-(imidazo[1,2-a]pyrazin-6-yl)-5-methyl-5H-pyrrolo[2,3-d]pyrimidin-6(7H)-one] | 163% | 7.25 |
| CC1(F)CN(c2nc(-c3cn4ccnc4cn3)nc3c2C(C)(c2ccc(Cl)cc2)C(=O)N3)C1 (centres unmarked) [Example 284A, 5-(4-chlorophenyl)-4-(3-fluoro-3-methylazetidin-1-yl)-2-(imidazo[1,2-a]pyrazin-6-yl)-5-methyl-5H-pyrrolo[2,3-d]pyrimidin-6(7H)-one] | 120% | 6.99 |
| CC1(c2ccc(Cl)cc2)C(=O)Nc2nc(-c3cn4ccnc4cn3)nc(NCCCC(F)(F)F)c21 (centres unmarked) [Example 285A, 5-(4-chlorophenyl)-2-(imidazo[1,2-a]pyrazin-6-yl)-5-methyl-4-((4,4,4-trifluorobutyl)amino)-5H-pyrrolo[2,3-d]pyrimidin-6(7H)-one] | 130% | 7.70 |
| CC1(c2ccc(Cl)cc2)C(=O)Nc2nc(-c3cn4ccnc4cn3)nc(NC3CC(F)(F)C3)c21 (centres unmarked) [Example 287A, 5-(4-chlorophenyl)-4-((3,3-difluorocyclobutyl)amino)-2-(imidazo[1,2-a]pyrazin-6-yl)-5-methyl-5H-pyrrolo[2,3-d]pyrimidin-6(7H)-one] | 133% | 6.42 |
| CC1(c2ccc(Cl)cc2)C(=O)Nc2nc(-c3cn4ccnc4cn3)nc(NCC(F)(F)F)c21 (centres unmarked) [Example 288A, 5-(4-chlorophenyl)-2-(imidazo[1,2-a]pyrazin-6-yl)-5-methyl-4-((2,2,2-trifluoroethyl)amino)-5H-pyrrolo[2,3-d]pyrimidin-6(7H)-one] | 119% | 7.92 |
| CC1(c2ccc(Cl)cc2)C(=O)Nc2nc(-c3cn4ccnc4cn3)nc(NCCC(F)(F)F)c21 (centres unmarked) [Example 289A, 5-(4-chlorophenyl)-2-(imidazo[1,2-a]pyrazin-6-yl)-5-methyl-4-((3,3,3-trifluoropropyl)amino)-5H-pyrrolo[2,3-d]pyrimidin-6(7H)-one] | 106% | 6.54 |
| CN(C)c1nc(-c2cn3ccnc3c(CCC(F)(F)C(F)(F)F)n2)nc2c1C(C)(c1ccc(F)cn1)C(=O)N2 (centres unmarked) [Example 291B, 4-(dimethylamino)-5-(5-fluoropyridin-2-yl)-5-methyl-2-(8-(3,3,4,4,4-pentafluorobutyl)imidazo[1,2-a]pyrazin-6-yl)-5H-pyrrolo[2,3-d]pyrimidin-6(7H)-one] | 126% | 6.10 |
| CC1(c2ccc(F)cn2)C(=O)Nc2nc(-c3cn4ccnc4c(CCC(F)(F)C(F)(F)F)n3)nc(NC3CC3)c21 (centres unmarked) [Example 292B, 4-(cyclopropylamino)-5-(5-fluoropyridin-2-yl)-5-methyl-2-(8-(3,3,4,4,4-pentafluorobutyl)imidazo[1,2-a]pyrazin-6-yl)-5H-pyrrolo[2,3-d]pyrimidin-6(7H)-one] | 148% | 6.02 |
| COCCNc1nc(-c2cn3ccnc3c(CCC(F)(F)F)n2)nc2c1C(C)(c1ccc(Cl)cc1)C(=O)N2 (centres unmarked) [Example 296A, 5-(4-chlorophenyl)-4-((2-methyoxyethyl)amino)-5-methyl-2-(8-(3,3,3-trifluoropropyl)imidazo[1,2-a]pyrazin-6-yl)-5H-pyrrolo[2,3-d]pyrimidin-6(7H)-one] | 77% | 6.85 |
| CC1(c2ccc(Cl)cc2)C(=O)Nc2nc(-c3cn4ccnc4c(CCC(F)(F)F)n3)nc(N3CCOCC3)c21 (centres unmarked) [Example 297A, 5-(4-chlorophenyl)-5-methyl-4-morpholino-2-(8-(3,3,3-trifluoropropyl)imidazo[1,2-a]pyrazin-6-yl)-5H-pyrrolo[2,3-d]pyrimidin-6(7H)-one] | 101% | 6.33 |
| CCOC(=O)CCNc1nc(-c2cn3ccnc3c(CCC(F)(F)F)n2)nc2c1C(C)(c1ccc(Cl)cc1)C(=O)N2 (centres unmarked) [Example 298A, ethyl 3-((5-(4-chlorophenyl)-5-methyl-6-oxo-2-(8-(3,3,3-trifluoropropyl)imidazo[1,2-a]pyrazin-6-yl)-6,7-dihydro-5H-pyrrolo[2,3-d]pyrimidin-4-yl)amino)propanoate] | 114% | 6.92 |
| CC1(c2ccc(F)cc2)C(=O)Nc2nc(-c3cn4ccnc4c(CCC(F)(F)C(F)(F)F)n3)nc(N3CCSCC3)c21 (centres unmarked) [Example 300A, 5-(4-fluorophenyl)-5-methyl-2-(8-(3,3,4,4,4-pentafluorobutyl)imidazo[1,2-a]pyrazin-6-yl)-4-thiomorpholine-5H-pyrrolo[2,3-d]pyrimidin-6(7H)-one] | 136% | 6.31 |

More lines, in order of rising pEC50, values ahead:

| Emax | pEC50 | SMILES |
| --- | --- | --- |
| 96% | 6.17 | CN1CCN(c2nc(-c3cn4ccnc4c(CCC(F)(F)C(F)(F)F)n3)nc3c2C(C)(c2ccc(F)cn2)C(=O)N3)CC1 (centres unmarked) [Example 295B, 5-(5-fluoropyridin-2-yl)-5-methyl-4-(4-methylpiperazin-1-yl)-2-(8-(3,3,4,4,4-pentafluorobutyl)imidazo[1,2-a]pyrazin-6-yl)-5H-pyrrolo[2,3-d]pyrimidin-6(7H)-one] |
| 114% | 6.20 | CC1(c2ccc(F)cc2)C(=O)Nc2nc(-c3cn4ccnc4c(CCC(F)(F)C(F)(F)F)n3)nc(N3CCN(S(C)(=O)=O)CC3)c21 (centres unmarked) [Example 299A, 5-(4-fluorophenyl)-5-methyl-4-(4-(methylsulfonyl)piperazin-1-yl)-2-(8-(3,3,4,4,4-pentafluorobutyl)imidazo[1,2-a]pyrazin-6-yl)-5H-pyrrolo[2,3-d]pyrimidin-6(7H)-one] |
| 105% | 6.26 | CC1(C)CN(c2nc(-c3cn4ccnc4c(CCC(F)(F)C(F)(F)F)n3)nc3c2C(C)(c2ccc(F)cc2)C(=O)N3)C1 (centres unmarked) [Example 302A, 4-(3,3-dimethylazetidin-1-yl)-5-(4-fluorophenyl)-5-methyl-2-(8-(3,3,4,4,4-pentafluorobutyl)imidazo[1,2-a]pyrazin-6-yl)-5H-pyrrolo[2,3-d]pyrimidin-6(7H)-one] |
| 107% | 6.29 | COCCNc1nc(-c2cn3ccnc3c(CCC(F)(F)C(F)(F)F)n2)nc2c1C(C)(c1ccc(F)cn1)C(=O)N2 (centres unmarked) [Example 293B, 5-(5-fluoropyridin-2-yl)-4-((2-methoxyethyl)amino)-5-methyl-2-(8-(3,3,4,4,4-pentafluorobutyl)imidazo[1,2-a]pyrazin-6-yl)-5H-pyrrolo[2,3-d]pyrimidin-6(7H)-one] |
| 89% | 6.35 | CC1(c2ccc(F)cn2)C(=O)Nc2nc(-c3cn4ccnc4c(CCC(F)(F)C(F)(F)F)n3)nc(N3CCOCC3)c21 (centres unmarked) [Example 294B, 5-(5-fluoropyridin-2-yl)-5-methyl-4-morpholino-2-(8-(3,3,4,4,4-pentafluorobutyl)imidazo[1,2-a]pyrazin-6-yl)-5H-pyrrolo[2,3-d]pyrimidin-6(7H)-one] |
| 116% | 6.50 | CC1(c2ccc(F)cc2)C(=O)Nc2nc(-c3cn4ccnc4c(CCC(F)(F)C(F)(F)F)n3)nc(N3CCCC3)c21 (centres unmarked) [Example 301A, 5-(4-fluorophenyl)-5-methyl-2-(8-(3,3,4,4,4-pentafluorobutyl)imidazo[1,2-a]pyrazin-6-yl)-4-(pyrrolidin-1-yl)-5H-pyrrolo[2,3-d]pyrimidin-6(7H)-one] |
